Source: ChEMBL document CHEMBL3044875, “Synthesis and antimicrobial activity of some bisoctahydroxanthene-1,8-dione derivatives” (2011)
Active and inactive are the calls of the source.

Columns and labels:
[1] = system: Rhodotorula mucilaginosa; assay: Antifungal activity against Rhodotorula mucilaginosa at 100 U/disk after 48 hr by disk diffusion method; type: functional, organism-based
[2] = system: Escherichia coli; assay: Antibacterial activity against Escherichia coli ATCC 25922 at 20 ug/disk after 24 hr by disk-diffusion method; type: functional
[3] = system: Bacillus cereus; assay: Antibacterial activity against Bacillus cereus NRRL 3711 at 20 ug/disk after 24 hr by disk diffusion method; type: functional
[4] = system: Candida albicans; assay: Antifungal activity against Candida albicans ATCC 10231 at 40 ug/disk after 48 hr by disk-diffusion method; type: functional; conditions: ATCC 10231, 48 h, read-out: DIZ
[5] = system: Proteus vulgaris; assay: Antibacterial activity against Proteus vulgaris NRRL-B-123 at 20 ug/disk after 24 hr by disk diffusion method; type: functional, organism-based
[6] = system: Staphylococcus epidermidis; assay: Antibacterial activity against Staphylococcus epidermidis ATCC 12228 at 140 ug/disk after 24 hr by disk diffusion method; type: functional
[7] = system: Aspergillus niger; assay: Antifungal activity against Aspergillus niger ATCC 10949 at 140 ug/disk after 72 hr by disk diffusion method; type: functional
[8] = system: Candida albicans; assay: Antifungal activity against Candida albicans ATCC 10231 at 20 ug/disk after 48 hr by disk-diffusion method; type: functional
[9] = system: Bacillus cereus; assay: Antibacterial activity against Bacillus cereus NRRL 3711 at 140 ug/disk after 24 hr by disk diffusion method; type: functional
[10] = system: Pseudomonas aeruginosa; assay: Antibacterial activity against Pseudomonas aeruginosa ATCC 27853 at 140 ug/disk after 24 hr by disk-diffusion method; type: functional, organism-based
[11] = system: Staphylococcus aureus; assay: Antibacterial activity against Staphylococcus aureus ATCC 25923 at 140 ug/disc after 24 hr by disk diffusion method; type: functional
[12] = system: Staphylococcus aureus; assay: Antibacterial activity against Staphylococcus aureus ATCC 25923 at 20 ug/disc after 24 hr by disk diffusion method; type: functional
[13] = system: Nocardia; assay: Antibacterial activity against Nocardia canis at 140 ug/disk after 24 hr by disk diffusion method; type: functional
[14] = system: Staphylococcus aureus; assay: Antibacterial activity against Staphylococcus aureus ATCC 25923 at 40 ug/disc after 24 hr by disk diffusion method; type: functional
[15] = system: Rhodotorula mucilaginosa; assay: Antifungal activity against Rhodotorula mucilaginosa at 140 ug/disk after 48 hr by disk diffusion method; type: functional
[16] = system: Rhodotorula mucilaginosa; assay: Antifungal activity against Rhodotorula mucilaginosa at 20 ug/disk after 48 hr by disk diffusion method; type: functional
[17] = system: Bacillus cereus; assay: Antibacterial activity against Bacillus cereus NRRL 3711 at 40 ug/disk after 24 hr by disk diffusion method; type: functional
[18] = system: Proteus vulgaris; assay: Antibacterial activity against Proteus vulgaris NRRL-B-123 at 40 ug/disk after 24 hr by disk diffusion method; type: functional, organism-based
[19] = system: Proteus vulgaris; assay: Antibacterial activity against Proteus vulgaris NRRL-B-123 at 140 ug/disk after 24 hr by disk diffusion method; type: functional, organism-based
[20] = system: Pseudomonas aeruginosa; assay: Antibacterial activity against Pseudomonas aeruginosa ATCC 27853 at 20 ug/disk after 24 hr by disk-diffusion method; type: functional, organism-based
[21] = system: Rhodotorula mucilaginosa; assay: Antifungal activity against Rhodotorula mucilaginosa at 40 ug/disk after 48 hr by disk diffusion method; type: functional
[22] = system: Aspergillus niger; assay: Antifungal activity against Aspergillus niger ATCC 10949 at 40 ug/disk after 72 hr by disk diffusion method; type: functional, organism-based
[23] = system: Pseudomonas aeruginosa; assay: Antibacterial activity against Pseudomonas aeruginosa ATCC 27853 at 40 ug/disk after 24 hr by disk-diffusion method; type: functional, organism-based
[24] = system: Aspergillus niger; assay: Antifungal activity against Aspergillus niger ATCC 10949 at 20 ug/disk after 72 hr by disk diffusion method; type: functional, organism-based
[25] = system: Staphylococcus epidermidis; assay: Antibacterial activity against Staphylococcus epidermidis ATCC 12228 at 40 ug/disk after 24 hr by disk diffusion method; type: functional
[26] = system: Nocardia; assay: Antibacterial activity against Nocardia canis at 20 ug/disk after 24 hr by disk diffusion method; type: functional, organism-based
[27] = system: Staphylococcus epidermidis; assay: Antibacterial activity against Staphylococcus epidermidis ATCC 12228 at 20 ug/disk after 24 hr by disk diffusion method; type: functional, organism-based
[28] = system: Escherichia coli; assay: Antibacterial activity against Escherichia coli ATCC 25922 at 40 ug/disk after 24 hr by disk-diffusion method; type: functional
[29] = system: Nocardia; assay: Antibacterial activity against Nocardia canis at 40 ug/disk after 24 hr by disk diffusion method; type: functional
[30] = system: Escherichia coli; assay: Antibacterial activity against Escherichia coli ATCC 25922 at 140 ug/disk after 24 hr by disk-diffusion method; type: functional
[31] = system: Candida albicans; assay: Antifungal activity against Candida albicans ATCC 10231 at 140 ug/disk after 48 hr by disk-diffusion method; type: functional; conditions: ATCC 10231, 48 h, read-out: DIZ

NYSTATIN
21 mm: inhibition zone (IZ) [1]

COc1ccc(C2CC(=O)C3=C(C2)OC2=C(C(=O)CC(c4ccc(OC)c(OC)c4)C2)C3c2ccc(C3C4=C(CC(c5ccc(OC)c(OC)c5)CC4=O)OC4=C3C(=O)CC(c3ccc(OC)c(OC)c3)C4)cc2)cc1OC (stereo unspecified)
7 mm: zone of inhibition at 40 µg/disc [4] | zone of inhibition at 140 µg/disc [31]
inactive: diameter of the inhibition zone (DIZ) [2] | diameter of the inhibition zone (DIZ) [3] | diameter of the inhibition zone (DIZ) [5] | diameter of the inhibition zone (DIZ) [6] | diameter of the inhibition zone (DIZ) [7] | diameter of the inhibition zone (DIZ) [8] | diameter of the inhibition zone (DIZ) [9] | diameter of the inhibition zone (DIZ) [10] | diameter of the inhibition zone (DIZ) [11] | diameter of the inhibition zone (DIZ) [12] | diameter of the inhibition zone (DIZ) [13] | diameter of the inhibition zone (DIZ) [14] | diameter of the inhibition zone (DIZ) [15] | diameter of the inhibition zone (DIZ) [16] | diameter of the inhibition zone (DIZ) [17] | diameter of the inhibition zone (DIZ) [18] | diameter of the inhibition zone (DIZ) [19] | diameter of the inhibition zone (DIZ) [20] | diameter of the inhibition zone (DIZ) [21] | diameter of the inhibition zone (DIZ) [22] | diameter of the inhibition zone (DIZ) [23] | diameter of the inhibition zone (DIZ) [24] | diameter of the inhibition zone (DIZ) [25] | diameter of the inhibition zone (DIZ) [26] | diameter of the inhibition zone (DIZ) [27] | diameter of the inhibition zone (DIZ) [28] | diameter of the inhibition zone (DIZ) [29] | diameter of the inhibition zone (DIZ) [30]

O=C1CCCC2=C1C(c1cccc(C3C4=C(CCCC4=O)OC4=C3C(=O)CCC4)c1)C1=C(CCCC1=O)O2
9 mm: zone of inhibition at 140 µg/disc ([15]; read-out: DIZ)
inactive: diameter of the inhibition zone (DIZ) [2] | diameter of the inhibition zone (DIZ) [5] | diameter of the inhibition zone (DIZ) [6] | diameter of the inhibition zone (DIZ) [8] | diameter of the inhibition zone (DIZ) [10] | diameter of the inhibition zone (DIZ) [11] | diameter of the inhibition zone (DIZ) [12] | diameter of the inhibition zone (DIZ) [13] | diameter of the inhibition zone (DIZ) [14] | diameter of the inhibition zone (DIZ) [16] | diameter of the inhibition zone (DIZ) [18] | diameter of the inhibition zone (DIZ) [19] | diameter of the inhibition zone (DIZ) [20] | diameter of the inhibition zone (DIZ) [22] | diameter of the inhibition zone (DIZ) [23] | diameter of the inhibition zone (DIZ) [24] | diameter of the inhibition zone (DIZ) [25] | diameter of the inhibition zone (DIZ) [26] | diameter of the inhibition zone (DIZ) [27] | diameter of the inhibition zone (DIZ) [28] | diameter of the inhibition zone (DIZ) [29] | diameter of the inhibition zone (DIZ) [30]
7 mm: zone of inhibition at 40 µg/disc [4] | zone of inhibition at 140 µg/disc ([7]; ATCC 10949, 72 h, read-out: DIZ) | zone of inhibition at 40 µg/disc ([21]; read-out: DIZ) | zone of inhibition at 140 µg/disc [31]
10 mm: zone of inhibition at 40 µg/disc ([17]; NRRL 3711, 24 h, read-out: DIZ)
8 mm: zone of inhibition at 20 µg/disc ([3]; NRRL 3711, 24 h, read-out: DIZ) | zone of inhibition at 140 µg/disc ([9]; NRRL 3711, 24 h, read-out: DIZ)
